How the values were obtained:
rhinovirus infection = conditions: cited from earlier work
HCoV 229E = format: cell-based
HCoV 229E 3CL^pro = HCoV 229E 3CL^pro (Human coronavirus 229E, UniProt P0C6U2); assay: biochemical; format: biochemical
SARS-CoV-2 3CL^pro = SARS-CoV-2 3CL^pro (Severe acute respiratory syndrome coronavirus 2, UniProt P0DTD1); format: biochemical
SARS-CoV-2 = conditions: read-out: EC50 against SARS-CoV-2; human bronchial epithelial cells; cited from earlier work

HCoV 229E 3CL^pro, sequence (P0C6U2 2966-3267): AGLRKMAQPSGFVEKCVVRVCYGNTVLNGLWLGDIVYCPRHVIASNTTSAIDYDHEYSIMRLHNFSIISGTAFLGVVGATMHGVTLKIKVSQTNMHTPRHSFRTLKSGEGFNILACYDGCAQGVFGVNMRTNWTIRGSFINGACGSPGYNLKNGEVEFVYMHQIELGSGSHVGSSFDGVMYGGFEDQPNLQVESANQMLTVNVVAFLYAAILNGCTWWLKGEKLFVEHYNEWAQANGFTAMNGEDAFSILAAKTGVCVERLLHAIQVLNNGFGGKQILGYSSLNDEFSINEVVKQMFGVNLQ

SMILES | fold less potent than nirmatrelvir (EC50, cell-based HCoV 229E) (HCoV 229E) | IC50 (HCoV 229E 3CL^pro) [µM] | other results
CCOC(=O)/C=C/[C@H](C[C@@H]1CCNC1=O)NC(=O)[C@@H](CC(=O)[C@@H](NC(=O)c1cc(C)on1)C(C)C)Cc1ccc(F)cc1 [rupintrivir] | – | – | efficacy against rhinovirus infection in phase 2 clinical trials (rhinovirus infection): lack of efficacy
CC(C)(C)[C@H](NC(=O)C(F)(F)F)C(=O)N1C[C@H]2[C@@H]([C@H]1C(=O)N[C@H](C=O)C[C@@H]1CCNC1=O)C2(C)C [Compound 2] | ~4 fold | – | fold inhibitory activity improvement for HCoV 229E 3CL^pro compared to nirmatrelvir (HCoV 229E 3CL^pro; IC50 ratio vs nirmatrelvir): 9 fold
CC(C)(C)[C@H](NC(=O)C(F)(F)F)C(=O)N1C[C@H]2[C@@H]([C@H]1C(=O)N[C@H](CO)C[C@@H]1CCNC1=O)C2(C)C [Compound 3] | – | > 100 | –
CC(C)(C)[C@H](NC(=O)C(F)(F)F)C(=O)N1C[C@H]2[C@@H]([C@H]1C(=O)N[C@@H](C[C@@H]1CCNC1=O)C(=O)C(=O)NC1CC1)C2(C)C [Compound 8] | 11 fold | – | fold improvement / more potent than nirmatrelvir (IC50, SARS-CoV-2 and HCoV 229E 3CL^pro) (SARS-CoV-2 3CL^pro): approximately 2 fold
COC(=O)[C@H](C[C@@H]1CCNC1=O)NC(=O)[C@@H]1[C@@H]2[C@H](CN1C(=O)[C@@H](NC(=O)C(F)(F)F)C(C)(C)C)C2(C)C [Compound 6] | – | > 100 | –
CC(C)(C)[C@H](NC(=O)C(F)(F)F)C(=O)N1C[C@H]2[C@@H]([C@H]1C(=O)NCCC1CCNC1=O)C2(C)C (stereo partly drawn) [Compound 1] | – | > 100 | –
CC(C)(C)[C@H](NC(=O)C(F)(F)F)C(=O)N1C[C@H]2[C@@H]([C@H]1C(=O)N[C@@H](C[C@@H]1CCNC1=O)C(N)=O)C2(C)C [Compound 4] | – | > 100 | –
CC(C)(C)[C@H](NC(=O)C(F)(F)F)C(=O)N1C[C@H]2[C@@H]([C@H]1C(=O)N[C@H](C#N)C[C@@H]1CCNC1=O)C2(C)C [Nirmatrelvir] | – | – | EC50 (SARS-CoV-2): 0.075 µM
CC(C)(C)[C@H](NC(=O)C(F)(F)F)C(=O)N1C[C@H]2[C@@H]([C@H]1C(=O)N[C@@H](C[C@@H]1CCNC1=O)C(=O)COCc1ccccc1)C2(C)C [Compound 9] | approximately 2 fold | – | fold less potent than nirmatrelvir against HCoV 229E 3CL^pro (IC50) (HCoV 229E 3CL^pro): 3 fold

Source: paper PMC9331150 (ACS Medicinal Chemistry Letters, 2022)
